A word on the EC50: it is the concentration that produces a half-maximal response.

Each structure is given as a SMILES string.

For the assay, the system named is STING pathway. The assay can be described thus: STING reporter assay: luciferase reporter activity in THP1-Dual KO-IFNAR2 cells activated with 2'3'cGAMP. The note with it: Homo sapiens, 2'3'cGAMP 15 μM, 24 h, read-out: hSTING EC50. It is filed as cell-based. Put shortly:
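Luciferase secreted into the supernatant (QUANTI-Luc Plus read-out) was measured after 24 h at 37 °C. This was in THP1-Dual KO-IFNAR2 cells given test compounds (0.0017-100 μM final) plus Lipofectamine-transfected 2′3′cGAMP at 15 μM final; EC50 was then derived.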
Background: In a reporter assay the amount or activity of a reporter protein is the signal.

On to `O=C(Nc1c[nH]c2cc(F)c(F)cc12)c1ccc(OC(F)F)c(OCC2CC2)c1` [Compound 127, 3-(cyclopropylmethoxy)-N-(5,6-difluoro-1H-indol-3-yl)-4-(difluoromethoxy)benzamide], for which the EC50 lay in the range of 200 to 1000 nM. Regarding `Cc1cc(OC(F)(F)F)cc(C(=O)Nc2c[nH]c3cc(F)c(F)cc23)c1` [Compound 119, N-(5,6-difluoro-1H-indol-3-yl)-3-methyl-5-(trifluoromethoxy)benzamide], the EC50 lay in the range of 200 to 1000 nM. As to `O=C(Nc1c[nH]c2cc(F)c(F)cc12)c1ccc(CCOC(F)(F)F)cc1` [Compound 110, N-(5,6-difluoro-1H-indol-3-yl)-4-(2-(trifluoromethoxy)ethyl)benzamide], the concentration giving a half-maximal response (EC50) lay within 40 to 200 nM. Regarding `O=C(Nc1c[nH]c2cc(F)c(F)cc12)c1ccc(OCc2ccccc2)cc1` [Compound 136, 4-(benzyloxy)-N-(5,6-difluoro-1H-indol-3-yl)benzamide], the concentration for a half-maximal effect (EC50) was in the range of 200 to 1000 nM. As to `CC(C)n1cc(-c2ccc3[nH]cc(NC(=O)c4ccc(OCCCC(F)(F)F)cc4)c3c2)cn1` [Compound 180, N-(5-(1-isopropyl-1H-pyrazol-4-yl)-1H-indol-3-yl)-4-(4,4,4-trifluorobutoxy)benzamide], the EC50 is 200 to 1000 nM. On to `Cc1ncc(C(=O)Nc2c[nH]c3cc(F)c(F)cc23)cc1N1CCC(F)(F)CC1` [Compound 256, N-(5,6-difluoro-1H-indol-3-yl)-5-(4,4-difluoropiperidin-1-yl)-6-methylnicotinamide], for which the EC50 fell in the range of 1000 to 5000 nM. `O=C(Nc1c[nH]c2cc(F)c(F)cc12)c1ccc(C2CC(F)(F)C2)nc1` [Compound 216, N-(5,6-difluoro-1H-indol-3-yl)-6-(3,3-difluorocyclobutyl)nicotinamide]: the EC50 was 200 to 1000 nM. Take `CC(C)n1cc(-c2cc(F)c3[nH]cc(NC(=O)c4ccc(OCCCC(F)(F)F)cc4)c3c2)cn1` [Compound 204, N-(7-fluoro-5-(1-isopropyl-1H-pyrazol-4-yl)-1H-indol-3-yl)-4-(4,4,4-trifluorobutoxy)benzamide]: the EC50 lay in the range of 200 to 1000 nM. On to `O=C(Nc1c[nH]c2cc(F)c(F)cc12)c1cnc(N2CCC(F)(F)CC2)c(Cl)c1` [Compound 156, 5-chloro-N-(5,6-difluoro-1H-indol-3-yl)-6-(4,4-difluoropiperidin-1-yl)nicotinamide], for which the EC50 lay within 200 to 1000 nM. As to `O=C(Nc1c[nH]c2cc(F)c(F)cc12)c1ccnc(C(O)C(F)(F)F)c1` (stereo not shown) [Compound 235, N-(5,6-difluoro-1H-indol-3-yl)-2-(2,2,2-trifluoro-1-hydroxyethyl)isonicotinamide], the EC50 fell in the range of 5000 to 100000 nM.

Take `CCC(O)c1cc(C(=O)Nc2c[nH]c3cc(F)c(F)cc23)ccn1` (stereo not shown) [Compound 241, N-(5,6-difluoro-1H-indol-3-yl)-2-(1-hydroxypropyl)isonicotinamide]: the EC50 lay in the range of 5000 to 100000 nM. The same measure for `COc1cc(C(=O)Nc2c[nH]c3cc(F)c(F)cc23)ccc1C(F)(F)F` [Compound 112, N-(5,6-difluoro-1H-indol-3-yl)-3-methoxy-4-(trifluoromethyl)benzamide]: 200 to 1000 nM; for `CC(C)(CO)CCCNc1ncc(C(=O)Nc2c[nH]c3cc(F)c(F)cc23)cc1Cl` [Compound 209, 5-chloro-N-(5,6-difluoro-1H-indol-3-yl)-6-((5-hydroxy-4,4-dimethylpentyl)amino)nicotinamide]: 200 to 1000 nM. Next, `O=C(Nc1c[nH]c2cc(F)c(F)cc12)c1ccnc(CN2CC(F)(F)C2)c1` [Compound 257, N-(5,6-difluoro-1H-indol-3-yl)-2-((3,3-difluoroazetidin-1-yl)methyl)isonicotinamide]: 5000 to 100000 nM; `CCOc1c(F)ccc(C(=O)Nc2c[nH]c3cc(F)c(F)cc23)c1F` [Compound 198, N-(5,6-difluoro-1H-indol-3-yl)-3-ethoxy-2,4-difluorobenzamide]: 200 to 1000 nM. `O=C(Nc1c[nH]c2cc(F)c(F)cc12)c1ccc(OCCCC(F)(F)F)nc1` [Compound 138, N-(5,6-difluoro-1H-indol-3-yl)-6-(4,4,4-trifluorobutoxy)nicotinamide]: the EC50 is 200 to 1000 nM. For the compound `O=C(Nc1c[nH]c2cc(F)c(F)cc12)c1ccc(OC2CC(F)(F)C2)cc1` [Compound 109, N-(5,6-difluoro-1H-indol-3-yl)-4-(3,3-difluorocyclobutoxy)benzamide], the EC50 lay within 200 to 1000 nM. Turning to `O=C(Nc1c[nH]c2cc(F)c(F)cc12)c1ccc(CCC(F)(F)F)c(F)c1` [Compound 176, N-(5,6-difluoro-1H-indol-3-yl)-3-fluoro-4-(3,3,3-trifluoropropyl)benzamide], the EC50 fell in the range of 200 to 1000 nM.

Consider `COCCC1CCN(c2ncc(C(=O)Nc3c[nH]c4cc(F)c(F)cc34)cc2Cl)CC1` [Compound 163, 5-chloro-N-(5,6-difluoro-1H-indol-3-yl)-6-(4-(2-methoxyethyl)piperidin-1-yl)nicotinamide], for which the concentration for a half-maximal effect (EC50) fell in the range of 40 to 200 nM. Take `COCCO[C@@H]1CCN(c2ncc(C(=O)Nc3c[nH]c4cc(F)c(F)cc34)cc2C)C1` [Compound 184, (R)-N-(5,6-difluoro-1H-indol-3-yl)-6-(3-(2-methoxyethoxy)pyrrolidin-1-yl)-5-methylnicotinamide]: the concentration giving a half-maximal response (EC50) was in the range of 1000 to 5000 nM. With `O=C(Nc1c[nH]c2cc(F)c(F)cc12)c1cnc(OCCCC(F)(F)F)cn1` [Compound 148, N-(5,6-difluoro-1H-indol-3-yl)-5-(4,4,4-trifluorobutoxy)pyrazine-2-carboxamide], the concentration giving a half-maximal response (EC50) lay in the range of 200 to 1000 nM. On to `N#Cc1ccc2c(NC(=O)c3ccc(OCCCC(F)(F)F)c(F)c3)c[nH]c2c1` [Compound 104, N-(6-cyano-1H-indol-3-yl)-3-fluoro-4-(4,4,4-trifluorobutoxy)benzamide], for which the EC50 fell in the range of 1000 to 5000 nM.

Take `Cc1nc(-c2cccc(C(=O)Nc3c[nH]c4cc(F)c(F)cc34)c2)no1` [Compound 274, N-(5,6-difluoro-1H-indol-3-yl)-3-(5-methyl-1,2,4-oxadiazol-3-yl)benzamide]: the EC50 lay in the range of 200 to 1000 nM. Regarding `CC(C)n1cc(-c2ccc3[nH]cc(NC(=O)c4cnc(N5CCC(F)(F)CC5)c(Cl)c4)c3c2)cn1` [Compound 102, 5-chloro-6-(4,4-difluoropiperidin-1-yl)-N-(5-(1-isopropyl-1H-pyrazol-4-yl)-1H-indol-3-yl)nicotinamide], the half-maximal effective concentration (EC50) lay within 200 to 1000 nM. As for `CC1(c2ncc(C(=O)Nc3c[nH]c4cc(F)c(F)cc34)cc2F)CCC(F)(F)CC1` [Compound 220, 6-(4,4-difluoro-1-methylcyclohexyl)-N-(5,6-difluoro-1H-indol-3-yl)-5-fluoronicotinamide], the EC50 fell in the range of 40 to 200 nM.

On to `O=C(Nc1c[nH]c2cc(F)c(F)cc12)c1cnc(N2CCC(C(F)(F)F)C2)c(Cl)c1` (stereo not shown) [Compound 189, 5-chloro-N-(5,6-difluoro-1H-indol-3-yl)-6-(3-(trifluoromethyl)pyrrolidin-1-yl)nicotinamide], for which the EC50 fell in the range of 200 to 1000 nM. The same measure for `CCC1Cc2ccc(C(=O)Nc3c[nH]c4cc(F)c(F)cc34)cc2C1` (stereo not shown) [Compound 261, N-(5,6-difluoro-1H-indol-3-yl)-2-ethyl-2,3-dihydro-1H-indene-5-carboxamide]: 200 to 1000 nM; for `O=C(Nc1c[nH]c2cc(F)c(F)cc12)c1ccnc(NCCCC(F)(F)F)n1` [Compound 164, N-(5,6-difluoro-1H-indol-3-yl)-2-((4,4,4-trifluorobutyl)amino)pyrimidine-4-carboxamide]: 1000 to 5000 nM.

These data come from US20230250106A1, “COMPOUNDS AND COMPOSITIONS FOR TREATING CONDITIONS ASSOCIATED WITH STING ACTIVITY” (IFM Due, Inc., priority 2020, published 2023).
